In patent US20250099557A1, “ANTIBIOTIC PHARMACEUTICAL COMPOSITION CAPABLE OF SUBCUTANEOUS ADMINISTRATION” (SHANGHAI BAO PHARMACEUTICALS CO., LTD., priority 2021, published 2025):
Values belong to the molecule of their own block, whether it stands above or below them.

Tests used:
[1] = Compatibility study of HAase and antibiotic in solution: appearance of the solution; format: physicochemical; conditions: 8 solutions of antibiotic (two concentrations) with HAase 150-6000 units/ml in physiological saline
Method: (§1) The compatibility of HAase and an antibiotic was studied by preparing a solution comprising the two substances. A dry Meropenem power for injection was dissolved in physiological saline to give a concentration of 5 mg/ml and 50 mg/ml, and then HAase was added to give a final concentration of 150, 500, 2000, and 6000 units/ml respectively. After preparation, the solution was left to stand at room temperature for 15 min. The appearance of the solution was observed, and the concentration of HAase was determined.
as §1, with “dry Ceftriaxone sodium” for “dry Meropenem”, “of 50” for “of 5”, “and 250” for “and 50”
as §1, with “dry Azithromycin” for “dry Meropenem”, “of 10” for “of 5”, “and 100” for “and 50”
as §1, with “dry Cefradine powder” for “dry Meropenem power”, “of 50” for “of 5”, “and 250” for “and 50”
as §1, with “dry Teicoplanin powder” for “dry Meropenem power”, “of 10” for “of 5”, “and 70” for “and 50”
as §1, with “dry Ceftazidime powder” for “dry Meropenem power”, “of 20” for “of 5”, “and 200” for “and 50”
as §1, with “dry Ertapenem” for “dry Meropenem”, “of 30” for “of 5”, “and 300” for “and 50”
The compatibility of HAase and an antibiotic was studied by preparing a solution comprising the two substances. A dry Polymyxin B powder for injection was dissolved in physiological saline to give a concentration of 50,000 units/ml and 250,000 units/ml, and then HAase was added to give a final concentration of 150, 500, 2000, and 6000 units/ml respectively.

HAase [2] = biological target: T1, HAase (Homo sapiens, UniProt P38567); test: Compatibility study of HAase and antibiotic in solution: HAase activity; format: biochemical; conditions: 15 min room temperature; for Final concentration of HAase (units/ml) 150: HAase added to 150 units/ml; for Final concentration of HAase (units/ml) 500: HAase added to 500 units/ml; for Final concentration of HAase (units/ml) 2000: HAase added to 2000 units/ml; for Final concentration of HAase (units/ml) 6000: HAase added to 6000 units/ml; for interference with the activity of HAase: antibiotic and HAase in physiological saline
T1 construct: made in house
T1 sequence (P38567 36-482): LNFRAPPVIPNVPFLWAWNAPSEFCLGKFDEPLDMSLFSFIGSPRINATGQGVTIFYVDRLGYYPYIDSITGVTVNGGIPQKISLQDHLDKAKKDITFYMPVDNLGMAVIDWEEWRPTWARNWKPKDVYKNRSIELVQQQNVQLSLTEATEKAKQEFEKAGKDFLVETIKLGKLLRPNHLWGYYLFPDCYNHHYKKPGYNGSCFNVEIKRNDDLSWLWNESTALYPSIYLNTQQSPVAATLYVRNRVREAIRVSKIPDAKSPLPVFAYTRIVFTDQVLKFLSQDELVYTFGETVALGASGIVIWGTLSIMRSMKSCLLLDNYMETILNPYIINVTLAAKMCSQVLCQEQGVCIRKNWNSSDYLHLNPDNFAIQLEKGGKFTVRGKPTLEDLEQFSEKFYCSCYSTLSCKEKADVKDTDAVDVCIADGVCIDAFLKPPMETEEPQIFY
Method: “HAase activity refers to the ability of HAase to catalytically cleave hyaluronic acid. The Chinese Pharmacopoeia provides a method for determining the HAase activity, indirectly by measuring the amount of remaining higher-molecular-weight hyaluronic acid substrate after the enzyme is allowed to catalytically cleave hyaluronic acid at 37° C. for 30 min. A standard reference solution can be used in the assay to determine the relative activity (in units) of any HAase. In-vitro assays for the determination of HAase are known in the art. Exemplary assays include micro-turbidimetric assay described below, which indirectly measures the cleavage of hyaluronic acid by HAase by detecting an insoluble precipitate formed when uncleaved hyaluronic acid binds to serum albumin. The reference standard can be used, for example, to generate a standard curve, so as to determine the activity of the tested HAase in units.
as §1
as §1, with “dry Ceftriaxone sodium” for “dry Meropenem”, “of 50” for “of 5”, “and 250” for “and 50”
as §1, with “dry Azithromycin” for “dry Meropenem”, “of 10” for “of 5”, “and 100” for “and 50”
as §1, with “dry Cefradine powder” for “dry Meropenem power”, “of 50” for “of 5”, “and 250” for “and 50”
as §1, with “dry Teicoplanin powder” for “dry Meropenem power”, “of 10” for “of 5”, “and 70” for “and 50”
as §1, with “dry Ceftazidime powder” for “dry Meropenem power”, “of 20” for “of 5”, “and 200” for “and 50”, “min.” for “min. The appearance of the solution was observed, and the concentration of HAase was determined.”

HAase [3] = biological target: T1, HAase; test: as above; format: biochemical; conditions: antibiotic 50,000 units/ml in physiological saline; HAase added to 150 units/ml; 15 min room temperature
[4] = antibiotic 10 mg/ml in physiological saline
[5] = antibiotic 100 mg/ml in physiological saline
[6] = antibiotic 5 mg/ml in physiological saline
[7] = antibiotic 50 mg/ml in physiological saline
[8] = antibiotic 50,000 units/ml in physiological saline
[9] = antibiotic 250,000 units/ml in physiological saline

appearance of the solution [1]: clear and transparent
Final concentration of HAase (units/ml) 150 (HAase [2]; [4]): 152 units/ml
Final concentration of HAase (units/ml) 500 (HAase [2]; [4]): 482 units/ml
Final concentration of HAase (units/ml) 2000 (HAase [2]; [4]): 1651 units/ml
Final concentration of HAase (units/ml) 6000 (HAase [2]; [4]): 6140 units/ml
Final concentration of HAase (units/ml) 150 (HAase [2]; [5]): 140 units/ml
Final concentration of HAase (units/ml) 500 (HAase [2]; [5]): 500 units/ml
Final concentration of HAase (units/ml) 2000 (HAase [2]; [5]): 1760 units/ml
Final concentration of HAase (units/ml) 6000 (HAase [2]; [5]): 5818 units/ml
Molecule: CC[C@H]1OC(=O)[C@H](C)[C@@H](O[C@H]2C[C@@](C)(OC)[C@@H](O)[C@H](C)O2)[C@H](C)[C@@H](O[C@@H]2O[C@H](C)C[C@H](N(C)C)[C@H]2O)[C@](C)(O)C[C@@H](C)CN(C)[C@H](C)[C@@H](O)[C@]1(C)O [Azithromycin]
interference with the activity of HAase (HAase [2]): does not interfere with the activity of HAase

appearance of the solution [1]: clear and transparent
Final concentration of HAase (units/ml) 150 (HAase [2]; [6]): 150 units/ml
Final concentration of HAase (units/ml) 500 (HAase [2]; [6]): 511 units/ml
Final concentration of HAase (units/ml) 2000 (HAase [2]; [6]): 1979 units/ml
Final concentration of HAase (units/ml) 6000 (HAase [2]; [6]): 6271 units/ml
Final concentration of HAase (units/ml) 150 (HAase [2]; [7]): 145 units/ml
Final concentration of HAase (units/ml) 500 (HAase [2]; [7]): 491 units/ml
Final concentration of HAase (units/ml) 2000 (HAase [2]; [7]): 1984 units/ml
Final concentration of HAase (units/ml) 6000 (HAase [2]; [7]): 6121 units/ml
Molecule: C[C@@H](O)[C@H]1C(=O)N2C(C(=O)O)=C(S[C@@H]3CN[C@H](C(=O)N(C)C)C3)[C@H](C)[C@H]12 [Meropenem]
interference with the activity of HAase (HAase [2]): does not interfere with the activity of HAase

Molecule: Polymyxin B
appearance of the solution [1]: clear and transparent
Final concentration of HAase (units/ml) 500 (HAase [2]; [8]): 488 units/ml
Final concentration of HAase (units/ml) 2000 (HAase [2]; [8]): 2126 units/ml
Final concentration of HAase (units/ml) 6000 (HAase [2]; [8]): 5899 units/ml
Final concentration of HAase (units/ml) 150 (HAase [2]; [9]): 151 units/ml
Final concentration of HAase (units/ml) 500 (HAase [2]; [9]): 501 units/ml
Final concentration of HAase (units/ml) 2000 (HAase [2]; [9]): 2014 units/ml
Final concentration of HAase (units/ml) 6000 (HAase [2]; [9]): 6090 units/ml
interference with the activity of HAase (HAase [2]): does not interfere with the activity of HAase
Final concentration of HAase (units/ml) 150 (HAase [3]): 149 units/ml
